Test results reported in patent US11872224B2, “Amorphous solid dispersion formulation” (TaiGen Biotechnology Co., Ltd., priority 2020, dated 2024).
≈ marks a conversion by molar mass, not a printed value.

Assay: Dissolution assessment: solubility in FaSSIF
Assay type: physicochemical
Details: FaSSIF pH 6.5, 37° C., 600 rpm, target concentration 1.0 mg/mL
Experimental: An amount of Compound A (about 6 mg) and an amorphous solid dispersion (equivalent to around 6 mg Compound A) were weighed into separate 8 ml bottle, and 6 ml FaSSIF (Fasted state simulated intestinal fluid) was added (target concentration 1.0 mg/mL). The suspensions were stirred using a thermomixer at 37° C. under 600 rpm and 200 μL of suspensions were withdrawn at pre-set time intervals (such as 5 min) and then centrifuged at 14000 rpm for 4 min. Then, 100 μL of supernatant was diluted with 500 μL ACN (Acetonitrile) to prevent precipitation, and was analyzed by HPLC.
FaSSIF was prepared by following steps: 1) Place 0.1024 g sodium hydroxide, 0.7518 g sodium dihydrogen phosphate anhydrous and 1.5470 g sodium chloride in a 250 mL volumetric flask, add about 225 mL water, and adjust the pH to 6.5 with 1 N sodium hydroxide or 1N hydrochloric acid. Make up to volume (250 mL) with pure water. 2) Place and dissolve 0.4480 g SIF Powder Original with 100 mL of buffer (from step 1) in a 200 mL volumetric flask, add water to volume and mix well.

With COC(=O)OCOc1c2n(ccc1=O)N([C@H]1c3ccccc3CSc3c1ccc(F)c3F)CC1(CC1)C2=O [Sample 1, [1-((11S)-7,8-difluoro(6H,11H-dibenzo[c,f]thiepin-11-yl))-4,6-dioxospiro[1,2,3,9-tetrahydropyridino[1,2-e]pyridazine-3,1′-cyclopropane]-5-yloxy]methyl methoxyformate] the “Solubility 5 min” value (5 min) was 4.95 µg/mL (≈ 9.16 µM) and the “Solubility 15 min” value (15 min) was 4.89 µg/mL (≈ 9.05 µM).
